Test results as given in US12038447B2 (priority 2017, dated 2024).
Read-outs that look alike come from different tables or passages of the source.

What was measured:
[1] = system: deactivated influenza virus H5N1; type: binding, Influenza A Virus, A/Anhui/01/2005(H5N1)
[2] = system: Influenza A H5N1 (A/Anhui/2005) hemagglutinin (HA); type: binding
HA = conditions: cited from earlier work
MC3T3-E1 cells = experiment: Cell attachment and detachment on GRGDS functionalized rSAMs; conditions: for average projected cell area: 5 hours; for reduction in average projected cell area on MDSA versus MBA-SAMs: absence of GRGDS 3 in the layer
[3] = Water solubility (qualitative); type: physicochemical
[4] = system: human serum albumin (HSA) and lysozyme (LYZ); experiment: Protein resistance of E0-6 rSAMs on MHA gold, IRAS amide I and ellipsometry; type: binding; conditions: HSA or LYZ 1 mg/mL, pH 8, rSAM on MHA gold
[5] = pH titration of rinsed rSAM layers, ellipsometric thickness; type: physicochemical; conditions: on MBA SAMs
[6] = Fluorescence recovery after photobleaching (FRAP), lateral fluidity; type: physicochemical; conditions: 1 mol % FAM tagged amidine in E2 on COOH quartz
[7] = Air and rinse stability of rSAMs, rinsing and drying cycles; type: physicochemical; conditions: rSAM on MHA-gold
[8] = Critical micelle concentration from assembly kinetics, in situ ellipsometry; type: physicochemical; conditions: pH 9 buffer
[9] = 100 μM added to cells on XGRGDS3,filler2=0.25 on MBA SAMs, 30 minutes

**Q.** For mucin, which “effect of mucin masking on virus adsorption to rSAM-2” value [1] is on record?
**A.** effectively suppressed

**Q.** What about the “effect of preincubating HA with mucin on HA binding to rSAM-2” value [2] of the same compound?
**A.** effectively suppressed

**Q.** What about the Ki (HA; read-out: Ki of binding to HA) of the same compound?
**A.** 2 µM

**Q.** With C=C(C(=O)CNN[C@@H](CCCNC(=N)N)C(=O)NCC(=O)N[C@@H](CC(=O)O)C(=O)N[C@@H](CO)C(=O)O)c1cn(COCCOCCc2ccc(OCCCCCCCCCCOc3ccc(C(=N)N)cc3)cc2)nn1 [GRGDS 3, (2S,5S,11S)-16-(1-((2-(4-((10-(4-carbamimidoylphenoxy)decyl)oxy)phenethoxy)ethoxy)methyl)-1H-1,2,3-triazol-4-yl)-5-(carboxymethyl)-11-(3-guanidinopropyl)-2-(hydroxymethyl)-4,7,10,15-tetraoxo-3,6,9,12,13-pentaazaheptadec-16-enoic acid] as the compound, how does the “average projected cell area” value (MC3T3-E1 cells; XGRGDS3,filler2=0.1 on MDSA-SAMs) read?
**A.** 1183 μm^2

**Q.** What about the “average projected cell area” value (MC3T3-E1 cells; XGRGDS3,filler2=0.25 on MDSA-SAMs) of the same compound?
**A.** 1282 μm^2

**Q.** What about the “coverage of adhered cells versus amount in layer” value (MC3T3-E1 cells; XGRGDS3=0-0.25, 5 hours) of the same compound?
**A.** correlated with the increasing amount of GRGDS3

**Q.** What about the “average projected cell area versus surface without GRGDS3” value (MC3T3-E1 cells; with filler 1, XGRGDS3=0.25 on MBA SAMs) of the same compound?
**A.** an increase in average projected cell area

**Q.** What about the “average projected cell area versus GRGDS density” value (MC3T3-E1 cells; with filler 1 on MDSA SAMs) of the same compound?
**A.** no distinct differences

**Q.** What about the “average projected cell area versus surface without GRGDS3” value (MC3T3-E1 cells; with filler 2, XGRGDS3=0.1 and 0.25 on MDSA SAMs) of the same compound?
**A.** a decrease in average projected cell area

**Q.** What about the “average projected cell area versus GRGDS density” value (MC3T3-E1 cells; with filler 2 on MBA SAMs) of the same compound?
**A.** no distinct differences

**Q.** Which “water solubility” value [3] does the source give for CC(=O)NC1C(O)CC(OCCc2cn(CCOCCOCCc3ccc(OCCCCCCCCCCOc4ccc(C(=N)N)cc4)cc3)nn2)(C(=O)O)OC1C(O)C(O)CO (stereo not drawn) [compound 2, 5-Acetylamino-2-[2-(1-{2-[2-(2-{4-[10-(4-carbamimidoyl-phenoxy)-decyloxy]-phenyl}-ethoxy)-ethoxy]-ethyl}-1H-[1,2,3]triazol-4-yl)-ethoxy]-4-hydroxy-6-(1,2,3-trihydroxy-propyl)-tetrahydro-pyran-2-carboxylic acid] here?
**A.** highly water soluble

**Q.** For N=C(N)c1ccc(OCCCCCCCCCCOc2ccc(CCOCCOCCO)cc2)cc1 [E2, 4-[10-(4-{2-[2-(2-Hydroxy-ethoxy)-ethoxy]-ethyl}-phenoxy)-decyloxy]-benzamidine], which “reduction of protein adsorption based on amide I band intensity” value [4] is on record?
**A.** more than 50%

**Q.** And the “pH resistance of rinsed layers” value [5]?
**A.** up to 6

**Q.** What about the “reduction in average projected cell area on MDSA versus MBA-SAMs” value (MC3T3-E1 cells) of the same compound?
**A.** 28%

**Q.** And the “diffusion coefficient from FRAP” value [6]?
**A.** matching literature values of supported lipid bilayers

**Q.** Which “protein adsorption / resistance” value [4] does the source give for N=C(N)c1ccc(OCCCCCCCCCCOc2ccc(CCOCCOCCOCCOCCOCCOCCO)cc2)cc1 [E6, 4-{10-[4-(2-{2-[2-(2-{2-[2-(2-Hydroxy-ethoxy)-ethoxy]-ethoxy}-ethoxy)-ethoxy]-ethoxy}-ethyl)-phenoxy]-decyloxy}-benzamidine] here?
**A.** less resistant

**Q.** What about the “decrease in layer thickness after 2 cycles of rinsing with pH 8 buffer and drying” value [7] of the same compound?
**A.** 9 Å

**Q.** With N=C(N)c1ccc(OCCCCCCCCCCOc2ccc(CCOCCOCCOCCOCCO)cc2)cc1 [E4, 4-(10-{4-[2-(2-{2-[2-(2-Hydroxy-ethoxy)-ethoxy]-ethoxy}-ethoxy)-ethyl]-phenoxy}-decyloxy)-benzamidine] as the compound, how does the “protein adsorption / resistance” value [4] read?
**A.** less resistant

**Q.** And the “critical micelle concentration (CMC)” value [8]?
**A.** approximately 5 μM

**Q.** What about the “reduction in average projected cell area” value (MC3T3-E1 cells; 100 μM added to cells on XGRGDS3,filler2=0.25 on MBA SAMs, 37° C., 30 minutes) of the same compound?
**A.** 65%

**Q.** And the “cell shape after addition” value (MC3T3-E1 cells; [9])?
**A.** dramatic transition from a spread-out cell shape to a non-adhesive round shape

**Q.** What about the “surface coverage by adherent cells normalized on average projected cell area” value (MC3T3-E1 cells; XGRGDS3,filler2=0 on MDSA-SAMs) of the same compound?
**A.** 12%

**Q.** What about the “average projected cell area” value (MC3T3-E1 cells; XGRGDS3,filler2=0 on MDSA-SAMs) of the same compound?
**A.** 1634 μm^2

**Q.** What about the “reduction in average projected cell area on MDSA versus MBA-SAMs” value (MC3T3-E1 cells) of the same compound?
**A.** no significant differences

**Q.** And the “cells after replacing medium with fresh medium” value (MC3T3-E1 cells; after 100 μM exposure, fresh medium, 37° C., 24 hrs)?
**A.** retain their adhesive characteristic

**Q.** Which results are given for Cl.N=C(N)c1ccc(OCCCCCCCCCCOc2ccc(CCO)cc2)cc1 [compound 1, Amino(4-(10-(4-(2-hydroxyethyl)phenoxy)decyloxy)phenyl)methaniminium chloride]?
**A.** protein adsorption / resistance [4]: most pronounced protein adsorption; water solubility [3]: poorly water-soluble; water solubility ([3]; listed as E0): poorly water soluble

**Q.** Which “cell shape after addition” value (MC3T3-E1 cells; [9]) does the source give for N=C(N)NCCC[C@H](N)C(=O)O [L-Arginine, reference compound] here?
**A.** most of the cells remained the spread-out shape

**Q.** Which Kd (HA; read-out: Kd per SA or HA monomer unit) does the source give for CO[C@]1(C(=O)O)C[C@H](O)[C@@H](NC(C)=O)[C@H]([C@H](O)[C@H](O)CO)O1 [α-methyl sialoside] here?
**A.** 2000 µM
